The test system of test [1] is NIH3T3-TrkC cells. Type of test: cell-based. The conditions noted are these: NIH3T3-TrkC cell survival. The protocol:
(§1) Cells were seeded at a density of 2000 cells per well. Cells were incubated in complete media for 24 hours. The media was aspirated, the cells washed twice with Dulbecco's Phosphate Buffered Saline, and the media was replaced with serum-free media to induce apoptosis unless otherwise halted. […] Cell survival was measured via alamarBlue assay after 48-72 hours to determine cell viability.
Cells were treated with a serial dilution of the compound in serum free media with or without suboptimal neurotrophin and incubated for 48-72 hours, after which an alamarBlue assay was done to determine cell viability. Cell viability was normalized to DMSO (0%) and optimal neurotrophin (100%), depending on cell type. EC50 was calculated in Graphpad Prism using the dose response “[agonist] vs response—Variable slope” function. Data is presented as the mean +/−standard deviation of an experiment with 3-6 replicates.

In test [2] the target is HEK293-TrkB cells (Homo sapiens, UniProt Q16620). In words: HEK293-TrkB cell survival dose response (alamarBlue). Type of test: cell-based. The settings on record: for EC50: EC50, HEK293-TrkB cell survival, serum-free media, 48-72 hours; for Partial or True Agonism: HEK293-TrkB cell survival. As to the method:
as §1
(§2) The most promising compounds from the screen were selected for each cell line. Cells were treated with a serial dilution of the compound in serum free media with or without suboptimal neurotrophin and incubated for 48-72 hours, after which an alamarBlue assay was done to determine cell viability. Cell viability was normalized to DMSO (0%) and optimal neurotrophin (100%), depending on cell type. EC50 was calculated in Graphpad Prism using the dose response “[agonist] vs response—Variable slope” function. Data is presented as the mean +/−standard deviation of an experiment with 3-6 replicates. Results for selected compounds with HeLa-TrkA cells can be found in FIG. 19A-19D. Results for selected compounds with HEK293-TrkB cells can be found in FIG. 20A-20C. Results for selected compounds with NIH3T3-TrkC cells can be found in FIG. 21A-21D.

Test [3] has as its system HeLa-TrkA cells. Type of test: cell-based. The protocol: as §1, §2
Test [4] concerns the target TrkA (Homo sapiens, UniProt P04629). The settings on record: background statement; cited from earlier work.
Test [5] concerns the target T1, p75 (Homo sapiens, UniProt P08138).
T1 sequence (P08138 29-427): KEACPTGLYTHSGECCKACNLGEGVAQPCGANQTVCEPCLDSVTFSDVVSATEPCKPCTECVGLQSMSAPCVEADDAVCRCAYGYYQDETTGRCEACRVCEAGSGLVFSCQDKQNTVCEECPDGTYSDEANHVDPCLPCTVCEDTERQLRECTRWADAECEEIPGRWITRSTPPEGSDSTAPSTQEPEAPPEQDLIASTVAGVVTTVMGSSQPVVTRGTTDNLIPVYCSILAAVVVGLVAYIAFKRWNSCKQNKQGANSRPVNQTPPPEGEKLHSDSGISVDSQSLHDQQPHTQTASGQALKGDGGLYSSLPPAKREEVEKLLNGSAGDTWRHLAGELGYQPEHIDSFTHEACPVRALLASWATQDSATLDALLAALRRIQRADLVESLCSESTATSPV
The settings on record: background statement; cited from earlier work.

The target of test [6] is TrkC (Homo sapiens, UniProt Q16288). The settings on record: background statement; cited from earlier work.
Test [7] relates to Goblet cells. The settings on record: in vitro, background statement; cited from earlier work.
[8] abbreviates: without suboptimal neurotrophin.
Setting [9] is: HeLa-TrkA cell survival, + 0.2 nM NGF.
Setting [10] is: HeLa-TrkA cell survival, serum-free media, + 0.2 nM NGF (suboptimal), 48-72 hours, read-out: EC50.
Where [11] appears, read: HeLa-TrkA cell survival, serum-free media, without suboptimal neurotrophin, 48-72 hours, read-out: EC50.
[12] abbreviates: HeLa-TrkA cell survival, without suboptimal neurotrophin.

Like-named read-outs stand apart in the source and are kept apart here. *1 amine or outer side, *2 acyl side, *3 side chain or, on linkers, in order; H or OH if unused. Where a SMILES comes first, the peptide text is derived from it. Bridges are numbered along the chain shown (N, C = ends). X1 = COc1ccc(C2=C3C=C(S(=O)(=O)O)C([*:1])=[N+]3[B-](F)(F)n3c2cc(S(=O)(=O)O)c3[*:2])cc1

HEK293-TrkB cells, sequence (Q16620 32-822): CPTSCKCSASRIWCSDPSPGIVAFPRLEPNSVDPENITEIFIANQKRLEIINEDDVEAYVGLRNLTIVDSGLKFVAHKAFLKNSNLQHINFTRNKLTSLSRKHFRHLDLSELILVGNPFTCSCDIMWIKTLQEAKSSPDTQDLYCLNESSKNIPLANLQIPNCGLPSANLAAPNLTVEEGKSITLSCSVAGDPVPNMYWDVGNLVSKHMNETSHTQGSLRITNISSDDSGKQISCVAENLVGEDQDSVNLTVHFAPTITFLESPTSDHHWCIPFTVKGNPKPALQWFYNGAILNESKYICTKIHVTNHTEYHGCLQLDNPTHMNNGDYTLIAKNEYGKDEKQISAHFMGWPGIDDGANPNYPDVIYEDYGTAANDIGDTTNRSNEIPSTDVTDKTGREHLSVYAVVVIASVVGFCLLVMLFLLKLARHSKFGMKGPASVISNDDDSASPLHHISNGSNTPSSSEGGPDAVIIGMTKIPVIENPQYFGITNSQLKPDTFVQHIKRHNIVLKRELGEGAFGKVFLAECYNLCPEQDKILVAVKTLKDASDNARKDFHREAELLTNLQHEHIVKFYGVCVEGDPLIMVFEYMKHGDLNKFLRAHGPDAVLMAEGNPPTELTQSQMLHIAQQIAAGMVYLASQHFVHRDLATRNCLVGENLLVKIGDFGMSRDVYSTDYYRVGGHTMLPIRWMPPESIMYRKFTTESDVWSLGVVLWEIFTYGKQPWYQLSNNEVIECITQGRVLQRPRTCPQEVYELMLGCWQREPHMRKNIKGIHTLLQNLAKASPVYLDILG
TrkA, sequence (P04629 33-796, species assumed): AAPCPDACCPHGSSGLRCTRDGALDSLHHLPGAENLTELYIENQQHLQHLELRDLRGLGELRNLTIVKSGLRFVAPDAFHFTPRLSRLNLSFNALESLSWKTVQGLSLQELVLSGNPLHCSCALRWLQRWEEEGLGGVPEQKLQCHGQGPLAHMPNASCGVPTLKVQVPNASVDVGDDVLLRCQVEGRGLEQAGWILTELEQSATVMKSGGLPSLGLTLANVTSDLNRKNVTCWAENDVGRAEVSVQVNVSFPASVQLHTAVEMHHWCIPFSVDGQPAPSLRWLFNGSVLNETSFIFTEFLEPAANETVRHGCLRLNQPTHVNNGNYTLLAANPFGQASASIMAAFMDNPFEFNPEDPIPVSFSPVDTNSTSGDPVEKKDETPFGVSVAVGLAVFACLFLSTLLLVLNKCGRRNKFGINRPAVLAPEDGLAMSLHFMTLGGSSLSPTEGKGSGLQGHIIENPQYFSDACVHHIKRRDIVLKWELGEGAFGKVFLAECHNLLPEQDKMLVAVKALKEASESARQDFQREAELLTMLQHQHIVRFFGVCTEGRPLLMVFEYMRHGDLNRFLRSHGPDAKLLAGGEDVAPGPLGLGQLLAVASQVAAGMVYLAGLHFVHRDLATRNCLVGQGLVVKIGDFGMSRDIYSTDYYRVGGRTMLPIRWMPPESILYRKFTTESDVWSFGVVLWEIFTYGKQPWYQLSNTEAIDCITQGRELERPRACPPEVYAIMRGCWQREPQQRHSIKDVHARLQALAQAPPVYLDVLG
TrkC, sequence (Q16288 32-839, species assumed): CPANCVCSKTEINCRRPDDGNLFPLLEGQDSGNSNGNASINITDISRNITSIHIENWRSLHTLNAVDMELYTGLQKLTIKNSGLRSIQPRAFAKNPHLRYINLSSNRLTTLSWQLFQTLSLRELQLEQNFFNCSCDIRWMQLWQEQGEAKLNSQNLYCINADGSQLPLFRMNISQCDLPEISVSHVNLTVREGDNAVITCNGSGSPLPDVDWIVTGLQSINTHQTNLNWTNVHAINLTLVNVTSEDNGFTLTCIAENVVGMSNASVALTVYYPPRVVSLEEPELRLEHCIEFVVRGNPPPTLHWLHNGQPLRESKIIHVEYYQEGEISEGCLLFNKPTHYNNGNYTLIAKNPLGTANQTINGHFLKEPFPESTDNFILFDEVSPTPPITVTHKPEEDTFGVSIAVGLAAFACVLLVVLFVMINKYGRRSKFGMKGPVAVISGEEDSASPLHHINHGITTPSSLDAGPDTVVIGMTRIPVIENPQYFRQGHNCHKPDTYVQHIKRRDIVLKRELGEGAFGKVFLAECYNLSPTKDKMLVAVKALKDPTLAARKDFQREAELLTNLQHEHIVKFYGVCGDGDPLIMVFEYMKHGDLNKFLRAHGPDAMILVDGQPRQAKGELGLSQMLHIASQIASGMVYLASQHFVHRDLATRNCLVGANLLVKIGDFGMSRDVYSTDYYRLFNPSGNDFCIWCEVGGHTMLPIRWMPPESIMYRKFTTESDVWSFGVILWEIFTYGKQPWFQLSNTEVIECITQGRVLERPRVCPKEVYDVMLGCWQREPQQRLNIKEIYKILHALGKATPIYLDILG

For the molecule `CC[C@H](C)[C@@H]1NC(=O)[C@H](CC(=O)O)NC(=O)[C@@H](NC(C)=O)CSC2=[N+]3C(=C(c4ccc(OC)cc4)c4cc(S(=O)(=O)O)c(n4[B-]3(F)F)SC[C@@H](C(N)=O)NC(=O)CNC(=O)[C@H](CCCNC(=N)N)NC1=O)C=C2S(=O)(=O)O` [5c(i)] (Ac-CDIRGC-NH2; linker 1-6 via X1), the “Partial or True Agonism” value in test [1] (+ 0.2 nM NT3) is listed as “partial”; in test [1] (setting [8]) it was “true”; in test [2] (+ 0.6 nM BDNF) it was “partial”; in test [2] (setting [8]), “true”. The values for the EC50 in test [2] (+ 0.6 nM BDNF (suboptimal)) and in test [2] (setting [8]) were 2200 nM and 100 nM, respectively.

Turning to `COc1ccc(C2=C3C=C(S(=O)(=O)O)C4=[N+]3[B-](F)(F)n3c2cc(S(=O)(=O)O)c3SC[C@@H](C(N)=O)NC(=O)[C@H](CCC(N)=O)NC(=O)[C@H](CCCCN)NC(=O)[C@H](CCC(=O)O)NC(=O)[C@H](CC(=O)O)NC(=O)[C@@H](NC(C)=O)CS4)cc1` [5a(iii)m] (Ac-CDEKQC-NH2; linker 1-6 via X1), the results for the “Partial or True Agonism” value in test [3] (setting [9]) and in test [3] (setting [12]) were “partial” and “true”, respectively. Besides, the EC50 in test [3] (setting [10]) is 500 nM; in test [3] (setting [11]), 2400 nM.

In the case of `COc1ccc(C2=C3C=C(S(=O)(=O)O)C4=[N+]3[B-](F)(F)n3c2cc(S(=O)(=O)O)c3SC[C@@H](C(N)=O)NC(=O)[C@H](CCCCN)NC(=O)[C@H](CC(N)=O)NC(=O)[C@H](CC(N)=O)NC(=O)[C@H](CCC(=O)O)NC(=O)[C@@H](NC(C)=O)CS4)cc1` [5c(iii)] (Ac-CENNKC-NH2; linker 1-6 via X1), the figures for the “Partial or True Agonism” value in test [1] (+ 0.2 nM NT3) and in test [1] (setting [8]) were “partial” and “true”, respectively.

For `COc1ccc(C2=C3C=C(S(=O)(=O)O)C4=[N+]3[B-](F)(F)n3c2cc(S(=O)(=O)O)c3SC[C@@H](C(N)=O)NC(=O)CNC(=O)[C@H](CCCCN)NC(=O)[C@H](CO)NC(=O)[C@H](C(C)C)NC(=O)[C@@H](NC(C)=O)CS4)cc1` [5b(ii)] (Ac-CVSKGC-NH2; linker 1-6 via X1), the values for the concentration for a half-maximal effect (EC50) in test [2] (+ 0.6 nM BDNF (suboptimal)) and in test [2] (setting [8]) were 2800 nM and 900 nM, respectively. The results for the “Partial or True Agonism” value in test [2] (+ 0.6 nM BDNF) and in test [2] (setting [8]) were “partial” and “true”, respectively.

In turn, `CC[C@H](C)[C@@H]1NC(=O)[C@H](CC(N)=O)NC(=O)C(C(C)C)n2cc(nn2)CC(C(=O)N[C@@H](CCCCNS(=O)(=O)c2cccc3c(N(C)C)cccc23)C(=O)O)NC(=O)[C@H](Cc2ccccc2)NC(=O)[C@H](C(C)C)NC(=O)[C@H](CO)NC(=O)[C@H](CC(N)=O)NC(=O)[C@H](CC(N)=O)NC1=O` (stereo partly drawn) [1a(ii)ext] had an EC50 in test [3] of 7070 nM. In test [3] (setting [12]), the “Partial or True Agonism” value is “true”.

As for Tavilermide [D3], the TrkA agonism result in test [4] is recorded as “partial TrkA agonist”. In test [5], the p75 activation result is listed as “does not activate p75”. The TrkC binding result in test [6] is reported as “does not bind TrkC”. In addition, in test [7], the glycoconjugated mucin secretion entry is on record as “increased glycoconjugated mucin secretion”.

For `COc1ccc(C2=C3C=C(S(=O)(=O)O)C4=[N+]3[B-](F)(F)n3c2cc(S(=O)(=O)O)c3SC[C@@H](C(N)=O)NC(=O)CNC(=O)[C@H](CO)NC(=O)[C@H](CCSC)NC(=O)[C@H](CC(=O)O)NC(=O)[C@@H](NC(C)=O)CS4)cc1` [5b(i)] (Ac-CDMSGC-NH2; linker 1-6 via X1), the EC50 in test [2] (+ 0.6 nM BDNF (suboptimal)) amounted to 1800 nM; in test [2] (setting [8]), 400 nM. Also, the “Partial or True Agonism” value in test [2] (+ 0.6 nM BDNF) is listed as “partial”; in test [2] (setting [8]) it was “true”.

Turning to `COc1ccc(C2=C3C=C(S(=O)(=O)O)C4=[N+]3[B-](F)(F)n3c2cc(S(=O)(=O)O)c3SC[C@@H](C(N)=O)NC(=O)[C@H](CO)NC(=O)[C@H](CC(N)=O)NC(=O)[C@H](CCC(N)=O)NC(=O)[C@H]([C@@H](C)O)NC(=O)[C@@H](NC(C)=O)CS4)cc1` [5c(ii)] (Ac-CTQNSC-NH2; linker 1-6 via X1), the “Partial or True Agonism” value in test [3] (setting [9]) is given as “partial”; in test [3] (setting [12]), “true”. Further, the figures for the EC50 in test [3] (setting [10]) and in test [3] (setting [11]) were 300 nM and 4500 nM, respectively.

In test [3], `CC[C@H](C)[C@@H]1NC(=O)[C@@H]2C[C@@H](CN2)NC(=O)[C@H](CO)NC(=O)[C@H](CC(N)=O)NC(=O)[C@H](CC(N)=O)NC1=O` [3a(ii)] displayed an EC50 of 10000 nM. The “Partial or True Agonism” value in test [3] (setting [12]) is listed as “true”.

In the case of `CC[C@H](C)[C@@H]1NC(=O)[C@H](CC(=O)O)NC(=O)[C@@H]2C[C@@H](CN2)NC(=O)CNC(=O)[C@H](CCCNC(=N)N)NC1=O` [3c(i)], in test [1] (+ 0.2 nM NT3), the “Partial or True Agonism” value is “partial”.

For orientation: EC50 means the concentration at which the effect is half-maximal.

The values are drawn from patent US20240368225A1, “SELECTIVE SMALL MOLECULE AGONISTS AND PARTIAL AGONISTS OF TRK RECEPTORS” (THE TEXAS A&M UNIVERSITY SYSTEM, priority 2021, published 2024).
